From US20190160058A1, “METHODS OF TREATMENT WITH SELECTIVE CB2 RECEPTOR AGONISTS” (Arena Pharmaceuticals, Inc., priority 2016, published 2019)
“Also recorded” adds a separate entry of the source.

What was measured:
[1] = test system: rats following ligation of spinal nerves; settings: cited from earlier work
[2] = test system: models of inflammatory pain in rodents; settings: systemic delivery; cited from earlier work
[3] = test system: human CB2 receptor versus the human CB1 receptor; test: selectivity for the human CB2 receptor versus the human CB1 receptor
Experimental: In some embodiments, an agonist compound that is used in the methods described herein has selectivity for the CB2 Receptor. In some embodiments, selectivity refers to the relative in vitro potency of a compound for the CB2 receptor and another receptor. For example, in some embodiments, selectivity refers to the relative in vitro potency of a compound for the CB2 receptor versus the CB1 receptor. In some embodiments, in vitro potency is measured using a second messenger assay. In some embodiments, in vitro potency is measured using a cAMP assay. In some embodiments, selectivity is determined by comparing data generated using a β-arrestin assay. In some embodiments, selectivity is determined by comparing data generated from a GTP-yS binding assay. In some embodiments, selectivity is determined by comparing data generated from a reporter gene assay. In some embodiments, selectivity is determined by comparing data generated for a biomarker. In some embodiments, in vitro potency is quantified as EC50. In some embodiments, selectivity refers to the relative binding affinity of an agonist for the CB2 receptor and another receptor. In some embodiments, binding affinity is quantified as Ki.

CB2 receptor [4] = biological target: T1, CB2 receptor (Homo sapiens, UniProt P34972); test: CB2 receptor agonism; type: cell-based
Description: Other CB2 receptor agonist compounds can be identified e.g., using the Homogeneous Time-Resolved Fluorescence (HTRF®) Assay for direct cAMP measurement (Gabriel et al., ASSAY and Drug Development Technologies, 1:291-303, 2003) (see, e.g., Example 2 of WO2011/025541). Compounds can be screened for agonism of the CB2 receptor (e.g., human CB2 receptor) using the HTRF® assay for direct cAMP measurement (assay kit sold by Cisbio-US, Inc., Bedford, Mass.; Catalog #62AM4PEC) in recombinant CHO-K1 cells stably transfected with the CB2 receptor. […] The specific signal (i.e., fluorescence resonance energy transfer, FRET) is inversely proportional to the concentration of unlabeled cAMP in the standard or sample. An agonist of the CB2 receptor is detected in the HTRF® assay for direct cAMP measurement when a compound decreases cAMP concentration. […]
CB2 receptor agonist compounds can also be identified using the DiscoveRx PathHunter β-arrestin assay which measures the β-arrestin binding to the CB2 receptor upon its activation (see, e.g., Example 3 of WO2011/025541). […] Binding of β-arrestin to the activated GPCR causes the complementation of the two enzyme fragments, forming an active β-galactosidase enzyme which can be measured using the chemiluminescent PathHunter Flash Detection Kit (DiscoveRx, Fremont, Calif.: catalog #93-0001).

preclinical animal model = preclinical animal model studies, cardiovascular effects; type: in vivo
healthy human subjects [5] = test: phase 1b multiple ascending dose clinical trial; type: in vivo
Experimental: A phase 1b randomized, double-blind, placebo-controlled multiple ascending dose clinical trial was performed in 36 healthy human subjects to assess the safety, tolerability, and pharmacokinetics of APD371 (Compound B). Doses of 50 mg three times daily (TID), 100 mg TID, and 200 mg TID were administered for 10 days. Subjects were in the clinic for approximately 17 days (referred to as Day −2 to Day 15). Study medication (APD371 or placebo) was administered TID on Days 1-10, and once on Day 11. Each cohort included 12 human subjects, nine of whom were administered APD371 and three of whom were administered placebo.
(§1) Vital signs were measured for blood pressure and heart rate in the supine position after resting for five minutes. 12-lead electrocardiograms were used to measure RR, PR, QRS, QT, QTc, QTcB, and QTcF in the recumbent position after resting for 10 minutes. 5-lead electrocardiograms were used for continuous telemetry, with measurements taken during the last five minutes of a resting period of 14 minutes±1 minute in the supine position. Baseline measurements were taken prior to dosing.

[6] = test system: painful peripheral diabetic neuropathy model; test: painful peripheral diabetic neuropathy model; settings: in vivo
CB2 receptor [7] = biological target: T1, CB2 receptor; test: CB2 receptor internalization efficacy relative to CP55,940; type: cell-based
Description: (§2) In certain instances, the CB2 receptor agonist compounds identified using the HTRF® assay, the PathHunter-arrestin assay, and the radioligand binding assay can be tested for CB2 receptor internalization to select those agonists that induce robust internalization of the receptor in order to maintain a sufficient level of signaling for sustained in vivo efficacy. In certain embodiments, such agonists are preferred in the methods described herein.
(§3) Receptor internalization can be measured using a number of methods, including but not limited to measuring a loss of labeled receptor from the cell surface (e.g., using flow cytometry) measuring the appearance of receptors internalized in the cell (e.g., in characteristic punctate intracellular vesicles), and/or measuring the return of receptors recycled to the cell surface. For example, the number, density, and/or staining intensity of granules in the cell can be quantified. Receptor internalization can be measured using any appropriate method known to those of skill in the art. […]

rat CB2 receptor = rat CB2 receptor (Rattus norvegicus, UniProt Q9QZN9); test: as above; type: cell-based
Description: as §2, §3

CB2 receptor [8] = biological target: T1, CB2 receptor; test: internalization of the CB2 receptor in a cell; type: cell-based
Description: In some embodiments, the selective CB2 receptor agonist increases internalization of the CB2 receptor in a cell to at least 75%, at least 80%, at least 85%, at least 90%, at least 95%, at least 96%, at least 97%, at least 98%, or at least about 99% the level of internalization that would occur if the cell were contacted with CP55,940. In some embodiments, the CB2 receptor agonist that increases internalization of the CB2 receptor to at least 90% of CP55,940 is selected from: Compound B, Compound E, Compound G, and Compound H. CP55,940 has the following chemical structure: […]
as §3

[9] = test system: paclitaxel-induced neuropathic pain model; test: paclitaxel-induced neuropathic pain model; settings: in vivo
[10] = test system: osteoarthritis pain model; test: osteoarthritis pain model; type: in vivo
healthy human subjects [11] = test: phase 1a single ascending dose clinical trial; type: in vivo
Experimental: A phase 1a randomized, double-blind, placebo-controlled single ascending dose clinical trial was performed in 56 healthy human subjects to assess the safety, tolerability, and pharmacokinetics of APD371 (Compound B). Doses of 10 mg, 20 mg, 30 mg, 60 mg, 120 mg, 250 mg, and 400 mg were administered. Subjects were in the clinic for approximately 9 days (referred to as Day −2 to Day 7). Study medication (APD371 or placebo) was administered on Day 1. Each cohort included eight human subjects, six of whom were administered APD371 and two of whom were administered placebo.
as §1

[12] = test system: guinea pig vagus nerve preparations; settings: in vitro; cited from earlier work
RPE cells = settings: cited from earlier work
[13] = test system: human vagus nerve preparations; settings: in vitro; cited from earlier work
human skin = settings: topical administration; cited from earlier work
[14] = test system: bovine nasal cartilage explants; settings: in vitro; cited from earlier work
ApoE knockout mice = settings: in vitro and in vivo; cited from earlier work
EAE mouse model = settings: in vivo; cited from earlier work
[15] = 50, 100, 200 mg TID for 10 days

T1 sequence (P34972 whole entry): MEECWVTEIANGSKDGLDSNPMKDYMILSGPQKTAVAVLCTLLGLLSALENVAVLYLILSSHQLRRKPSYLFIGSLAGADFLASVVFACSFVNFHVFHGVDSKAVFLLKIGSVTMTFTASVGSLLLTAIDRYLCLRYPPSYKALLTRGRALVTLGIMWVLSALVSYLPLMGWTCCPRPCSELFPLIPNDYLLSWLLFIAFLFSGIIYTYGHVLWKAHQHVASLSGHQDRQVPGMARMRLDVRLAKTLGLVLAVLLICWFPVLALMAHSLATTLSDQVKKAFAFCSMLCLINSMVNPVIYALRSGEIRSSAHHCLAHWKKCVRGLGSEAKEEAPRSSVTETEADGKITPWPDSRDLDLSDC
Chain of rat CB2 receptor (Q9QZN9 whole entry): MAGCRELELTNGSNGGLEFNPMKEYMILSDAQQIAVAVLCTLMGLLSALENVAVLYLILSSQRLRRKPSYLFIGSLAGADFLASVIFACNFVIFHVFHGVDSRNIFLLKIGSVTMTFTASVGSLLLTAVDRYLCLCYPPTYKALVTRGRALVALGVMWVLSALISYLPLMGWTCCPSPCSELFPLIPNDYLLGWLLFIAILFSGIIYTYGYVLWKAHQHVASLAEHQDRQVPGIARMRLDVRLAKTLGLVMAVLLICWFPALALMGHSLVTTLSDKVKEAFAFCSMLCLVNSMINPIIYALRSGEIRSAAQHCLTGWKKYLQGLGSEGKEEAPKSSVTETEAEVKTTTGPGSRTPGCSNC

Compound: COc1ccc(C(=O)c2c(C)n(CCN3CCOCC3)c3cc(I)ccc23)cc1 [AM630]
- effect on the AM1241 reversal of hypersensitivity ([1]; rat, in vivo): inhibited by treatment with the CB2-selective antagonist AM630

Compound: CN1CCCCC1Cn1cc(C(=O)c2cc([N+](=O)[O-])ccc2I)c2ccccc21 (centres unmarked) [AM1241]
- tactile and thermal hypersensitivity ([1]; local (subcutaneous) or systemic administration): reverses tactile and thermal hypersensitivity
- hyperalgesia [2]: suppresses hyperalgesia

Compound: CC(C)(C)[C@@H](CO)NC(=O)c1nn(-c2c[n+]([O-])ccn2)c2c1C[C@@H]1C[C@H]21 [APD371, (1aS,5aS)-2-(4-Oxy-pyrazin-2-yl)-1a,2,5,5a-tetrahydro-1H-2,3-diaza-cyclopropa[a]pentalene-4-carboxylic Acid ((S)-1-Hydroxymethyl-2,2-dimethyl-propyl)-amide]
- selectivity for the human CB2 receptor versus the human CB1 receptor [3]: > 1,000 fold
- agonist efficacy at the CB2 receptor (CB2 receptor [4]): full CB2 receptor agonist
- cardiovascular effects (preclinical animal model): Cardiovascular effects were not seen
- exposure (healthy human subjects [5]; [15]): Dose-responsive exposure was observed
- most common adverse events (healthy human subjects [5]; [15]): headache and nausea
- serious adverse events (healthy human subjects [5]; [15]): no serious adverse events reported
- severity of adverse events (healthy human subjects [5]; [15]): mild
- tolerability (healthy human subjects [5]; [15]): well tolerated with multiple dosing
- drug levels relative to those needed to stimulate the CB2 receptor (healthy human subjects [5]; all doses): well above those needed to stimulate the CB2 receptor
- discontinuations (healthy human subjects [5]; high-dose group): one discontinuation in the high-dose group due to an adverse event of mild thirst and somnolence
- change in blood pressure (healthy human subjects [5]; multiple ascending dose): asymptomatic reductions
- change in heart rate (healthy human subjects [5]; multiple ascending dose): asymptomatic reductions
- efficacy in model of painful peripheral diabetic neuropathy [6]: sustained efficacy
- receptor internalization efficacy relative to CP55,940 (CB2 receptor [7]): 96%
- receptor internalization efficacy relative to CP55,940 (rat CB2 receptor): 105%
- internalization of the CB2 receptor into cells (CB2 receptor [8]): high level of internalization
- efficacy in model of paclitaxel-induced neuropathic pain [9]: sustained efficacy
- efficacy in model of osteoarthritis pain ([10]; in vivo): sustained efficacy
- duration of in vivo efficacy following dosing ([10]; osteoarthritis pain model): maintained in vivo efficacy for four hours following dosing
- plasma concentrations ([10]; osteoarthritis pain model, following dosing): rapidly declining plasma concentrations
- systolic and diastolic blood pressure compared to baseline (healthy human subjects [11]; single ascending dose): Variations were also seen
- mean change in heart rate compared to baseline (healthy human subjects [11]; single ascending dose, highest doses): increase in heart rate was seen at the highest doses; also recorded: asymptomatic mean increase in heart rate
- exposure (healthy human subjects [11]; single doses 10 mg to 400 mg): Dose-responsive exposure was observed
- tolerability (healthy human subjects [11]; single doses 10 mg to 400 mg): well tolerated

Compound: CCCCCCC(C)(C)c1ccc([C@@H]2C[C@H](O)CC[C@H]2CCCO)c(O)c1 [CP55,940]
- capsaicin-, PGE2-, and hypertonic saline-induced depolarization [12]: reduces capsaicin-, PGE2-, and hypertonic saline-induced depolarization
- protection from oxidative damage (RPE cells): significantly protects RPE cells from oxidative damage
- capsaicin-, PGE2-, and hypertonic saline-induced depolarization [13]: reduces capsaicin-, PGE2-, and hypertonic saline-induced depolarization

Compound: COc1ccc2c(c1)c(CCN1CCOCC1)c(C)n2C(=O)c1cccc(Cl)c1Cl [GW405833]
- hypersensitivity to mechanical stimuli ([1]; administered systemically): significantly reverses hypersensitivity to mechanical stimuli

Compound: CCCCCCC(C)(C)c1cc(O)c2c(c1)OC(C)(C)[C@@H]1CC=C(CO)C[C@@H]21 [HU-210]
- histamine-induced responses (human skin): reduces these histamine-induced responses
- IL-1alpha-stimulated proteoglycan and collagen degradation [14]: significantly inhibit

Compound: SR144528
- blockade of the THC effect on atherosclerosis (ApoE knockout mice): completely blocks this effect
- blockade of the WIN 55212-2 effect on leukocyte rolling and adhesion (EAE mouse model): blocked by the CB2-selective antagonist SR144528
